Measured values taken from patent US12522594B2, “2-heteroaryl-3-oxo-2,3-dihydropyridazine-4-carboxamides for the treatment of cancer” (Deutsches Krebsforschungszentrum, priority 2017, dated 2026).

Key:
AHR [1] = target: T1, AHR (Homo sapiens, UniProt P35869); test: In vitro assay 1: antagonism in human cell line (transactivation assay, U87 cells prestimulated with kynurenic acid, DRE firefly luciferase reporter); format: cell-based; set-up: host or cells: U87 glioblastoma cells, stably transfected with DRE firefly luciferase and renilla reporter constructs; conditions: 150 uM kynurenic acid, 20 hours, read-out: Assay 1: AHR-luc Hum Antagonism IC50
T1 sequence (P35869 11-848): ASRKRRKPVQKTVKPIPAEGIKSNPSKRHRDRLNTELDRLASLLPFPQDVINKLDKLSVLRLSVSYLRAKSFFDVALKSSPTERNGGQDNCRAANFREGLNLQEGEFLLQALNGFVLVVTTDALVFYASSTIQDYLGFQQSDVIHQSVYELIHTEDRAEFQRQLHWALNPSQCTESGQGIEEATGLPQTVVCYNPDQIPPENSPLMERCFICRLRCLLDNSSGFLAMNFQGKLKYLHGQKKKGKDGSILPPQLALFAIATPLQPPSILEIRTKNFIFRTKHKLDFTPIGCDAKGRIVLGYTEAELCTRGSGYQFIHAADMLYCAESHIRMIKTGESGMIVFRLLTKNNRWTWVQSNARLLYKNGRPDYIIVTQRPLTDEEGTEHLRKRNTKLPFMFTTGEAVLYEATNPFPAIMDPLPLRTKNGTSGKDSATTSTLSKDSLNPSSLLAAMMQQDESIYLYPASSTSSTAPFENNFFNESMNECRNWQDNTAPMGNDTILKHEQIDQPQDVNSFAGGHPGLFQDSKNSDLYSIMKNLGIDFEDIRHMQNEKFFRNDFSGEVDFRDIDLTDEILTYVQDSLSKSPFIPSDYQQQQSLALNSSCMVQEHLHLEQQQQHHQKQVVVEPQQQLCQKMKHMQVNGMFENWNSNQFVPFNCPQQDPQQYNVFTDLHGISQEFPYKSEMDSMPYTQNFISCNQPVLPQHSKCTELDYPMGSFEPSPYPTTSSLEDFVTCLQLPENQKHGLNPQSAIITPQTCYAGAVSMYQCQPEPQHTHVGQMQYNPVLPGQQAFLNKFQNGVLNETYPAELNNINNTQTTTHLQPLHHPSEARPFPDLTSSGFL
Protocol: (§1) Transactivation Assay in Human Cell Line (In Vitro Assays 1 and 2)
(§2) Transactivation assays were carried out in U87 glioblastoma cells (ATCC) endogenously expressing AHR. In addition the cells were stably transfected with an AHR inducible firefly luciferase reporter gene construct that carried AHR-binding sites (DRE) in its promoter and a renilla reporter gene construct with constitutively active promoter. Kynurenic acid is an endogenous AHR activating ligand and was used to prestimulate test cells prior to testing the antagonistic properties of compounds.
In Vitro Assay 1: Antagonism in Human Cell Line
Normalization was done by positive and negative controls.

AHR [2] = target: T1, AHR; test: In vitro assay 2: agonism in human cell line (transactivation assay, U87 cells, DRE firefly luciferase reporter); format: cell-based; set-up: host or cells: U87 glioblastoma cells, stably transfected with DRE firefly luciferase and renilla reporter constructs; conditions: no kynurenic acid, 20 hours, read-out: Assay 2: AHR-luc Hum Agonism IC50
Protocol: as §1, §2
In Vitro Assay 2: Agonism in Human Cell Line
As positive activation control cells were incubated with 300 uM kynurenic acid. Normalization was done by positive and negative controls.

IC50 (AHR [1])	IC50 (AHR [2])	Compound
3.21 nM	> 20000 nM	Cn1cc(-n2nc(-c3ccc(C(F)(F)F)cc3)cc(C(=O)NC[C@H](O)C(F)F)c2=O)cn1 [Example 219, N-[(2S)-3,3-Difluoro-2-hydroxypropyl]-2-(1-methyl-1H-pyrazol-4-yl)-3-oxo-6-[4-(trifluoromethyl)phenyl]-2,3-dihydropyridazine-4-carboxamide]
1.06 nM	> 20000 nM	C[C@@H](CO)NC(=O)c1cc(-c2ccc(C(F)(F)F)cc2)nn(-c2cnsc2)c1=O [Example 205, N-[(2S)-1-Hydroxypropan-2-yl]-3-oxo-2-(1,2-thiazol-4-yl)-6-[4-(trifluoromethyl)phenyl]-2,3-dihydropyridazine-4-carboxamide]
164 nM	> 20000 nM	Cc1ccc(-c2cc(C(=O)N[C@H](C)CO)c(=O)n(-c3cnn(C)c3)n2)cc1 [Example 9, N-[(2R)-1-Hydroxypropan-2-yl]-6-(4-methylphenyl)-2-(1-methyl-1H-pyrazol-4-yl)-3-oxo-2,3-dihydropyridazine-4-carboxamide]
73.9 nM	> 20000 nM	Cn1cc(-n2nc(-c3ccc(OC(F)F)cc3)cc(C(=O)NC(C(C)(C)O)C(F)(F)F)c2=O)cn1 (single isomer, unassigned) [Example 307, 6-[4-(Difluoromethoxy)phenyl]-2-(1-methyl-1H-pyrazol-4-yl)-3-oxo-N-(1,1,1-trifluoro-3-hydroxy-3-methylbutan-2-yl)-2,3-dihydropyridazine-4-carboxamide]
25.5 nM	> 20000 nM	Cn1cc(-n2nc(-c3ccc(OC(F)(F)F)cc3)cc(C(=O)N[C@@H]3COC[C@H]3O)c2=O)cn1 (single isomer, unassigned; enantiomer 2) [Example 65, N-[(trans)-4-Hydroxytetrahydrofuran-3-yl]-2-(1-methyl-1H-pyrazol-4-yl)-3-oxo-6-[4-(trifluoromethoxy)phenyl]-2,3-dihydropyridazine-4-carboxamide, Enantiomer 2]
15.3 nM	> 20000 nM	O=C(N[C@@H]1CCC[C@H]1O)c1cc(-c2ccc(Cl)cc2)nn(-c2cccnc2)c1=O (relative stereo) [Example 148, 6-(4-Chlorophenyl)-N-[(trans)-2-hydroxycyclopentyl]-3-oxo-2-(pyridin-3-yl)-2,3-dihydropyridazine-4-carboxamide]
12.8 nM	> 20000 nM	Cn1cc(-n2nc(-c3ccc(C(F)(F)F)cc3)cc(C(=O)NC[C@H](O)CF)c2=O)cn1 [Example 245, N-[(2S)-3-Fluoro-2-hydroxypropyl]-2-(1-methyl-1H-pyrazol-4-yl)-3-oxo-6-[4-(trifluoromethyl)phenyl]-2,3-dihydropyridazine-4-carboxamide]
36.8 nM	> 20000 nM	O=C(N[C@H]1COC[C@@H]1O)c1cc(-c2ccc(Cl)cc2)nn(-c2cncc(F)c2)c1=O (relative stereo) [Example 154, 6-(4-Chlorophenyl)-2-(5-fluoropyridin-3-yl)-N-[(trans)-4-hydroxytetrahydrofuran-3-yl]-3-oxo-2,3-dihydropyridazine-4-carboxamide]
103 nM	> 20000 nM	O=C(N[C@H]1COC[C@@H]1O)c1cc(-c2ccc(OC(F)(F)F)cc2)nn(-c2cccnc2)c1=O (single isomer, unassigned; enantiomer 1) [Example 161, N-[(trans)-4-Hydroxytetrahydrofuran-3-yl]-3-oxo-2-(pyridin-3-yl)-6-[4-(trifluoromethoxy)phenyl]-2,3-dihydropyridazine-4-carboxamide, Enantiomer 1]
1.69 nM	> 20000 nM	O=C(N[C@H](CO)C(F)(F)F)c1cc(-c2ccc(C(F)(F)F)cc2)nn(-c2cn[nH]c2)c1=O [Example 212, 3-Oxo-2-(1H-pyrazol-4-yl)-N-[(2R)-1,1,1-trifluoro-3-hydroxypropan-2-yl]-6-[4-(trifluoromethyl)phenyl]-2,3-dihydropyridazine-4-carboxamide]
140 nM	> 20000 nM	CC(C)(O)CNC(=O)c1cc(-c2ccc(Cl)cc2)nn(-c2cnn(C(F)F)c2)c1=O [Example 278, 6-(4-Chlorophenyl)-2-[1-(difluoromethyl)-1H-pyrazol-4-yl]-N-(2-hydroxy-2-methylpropyl)-3-oxo-2,3-dihydropyridazine-4-carboxamide]
56.8 nM	> 20000 nM	CC(C)(O)CNC(=O)c1cc(-c2ccc(C(F)(F)F)cc2)nn(-c2cn[nH]c2)c1=O [Example 266, N-(2-Hydroxy-2-methylpropyl)-3-oxo-2-(1H-pyrazol-4-yl)-6-[4-(trifluoromethyl)phenyl]-2,3-dihydropyridazine-4-carboxamide]
13.2 nM	> 20000 nM	Cc1cc(-n2nc(-c3ccc(Cl)cc3)cc(C(=O)NCC(C)(C)O)c2=O)cs1 [Example 246, 6-(4-Chlorophenyl)-N-(2-hydroxy-2-methylpropyl)-2-(5-methyl-3-thienyl)-3-oxo-2,3-dihydropyridazine-4-carboxamide]
60.4 nM	> 20000 nM	CC(C)(O)C(NC(=O)c1cc(-c2ccc(OC(F)(F)F)cc2)nn(-c2cccnc2)c1=O)C(F)(F)F (single isomer, unassigned; enantiomer 1) [Example 136, 3-Oxo-2-(pyridin-3-yl)-N-[1,1,1-trifluoro-3-hydroxy-3-methylbutan-2-yl]-6-[4-(trifluoromethoxy)phenyl]-2,3-dihydropyridazine-4-carboxamide, Enantiomer 1]
251 nM	> 20000 nM	O=C(NC[C@@H](O)CO)c1cc(-c2ccc(Cl)cc2)nn(-c2cncc(F)c2)c1=O [Example 98, 6-(4-Chlorophenyl)-N-[(2R)-2,3-dihydroxypropyl]-2-(5-fluoropyridin-3-yl)-3-oxo-2,3-dihydropyridazine-4-carboxamide]
234 nM	> 20000 nM	CC(C)(O)CNC(=O)c1cc(-c2ccc(OC(F)F)cc2)nn(-c2cccnc2)c1=O [Example 331, 6-[4-(Difluoromethoxy)phenyl]-N-(2-hydroxy-2-methylpropyl)-3-oxo-2-(pyridin-3-yl)-2,3-dihydropyridazine-4-carboxamide]
55.9 nM	> 20000 nM	COC[C@H](CO)NC(=O)c1cc(-c2ccc(Cl)cc2)nn(-c2cncc(F)c2)c1=O [Example 86, 6-(4-Chlorophenyl)-2-(5-fluoropyridin-3-yl)-N-[(2S)-1-hydroxy-3-methoxypropan-2-yl]-3-oxo-2,3-dihydropyridazine-4-carboxamide]
1.21 nM	> 20000 nM	O=C(N[C@H](CO)C1CC1)c1cc(-c2ccc(C(F)(F)F)cc2)nn(-c2cnsc2)c1=O [Example 207, N-[(1S)-1-Cyclopropyl-2-hydroxyethyl]-3-oxo-2-(1,2-thiazol-4-yl)-6-[4-(trifluoromethyl)phenyl]-2,3-dihydropyridazine-4-carboxamide]
24.1 nM	> 20000 nM	O=C(N[C@H]1CCC[C@H]1O)c1cc(-c2ccc(C(F)(F)F)nc2)nn(-c2cncc(F)c2)c1=O [Example 338, 2-(5-Fluoropyridin-3-yl)-N-[(1S,2R)-2-hydroxycyclopentyl]-3-oxo-6-[6-(trifluoromethyl)pyridin-3-yl]-2,3-dihydropyridazine-4-carboxamide]
261 nM	> 20000 nM	O=C(N[C@@H]1CC[C@@H]1O)c1cc(-c2ccc(Cl)cc2)nn(-c2cccnc2)c1=O (single isomer, unassigned) [Example 281, (−)-6-(4-Chlorophenyl)-N-cis-2-hydroxycyclobutyl-3-oxo-2-(pyridin-3-yl)-2,3-dihydropyridazine-4-carboxamide]
44.1 nM	> 20000 nM	Cn1cc(-n2nc(-c3ccc(C(F)F)cc3)cc(C(=O)N[C@@H]3COC[C@@H]3O)c2=O)cn1 (single isomer, unassigned) [Example 320, 6-[4-(Difluoromethyl)phenyl]-N-[(cis)-4-hydroxytetrahydrofuran-3-yl]-2-(1-methyl-1H-pyrazol-4-yl)-3-oxo-2,3-dihydropyridazine-4-carboxamide]
